Reference: patent publication US20110191897A1, “Plants Tolerant to HPPD Inhibitor Herbicides” (Bayer CropScience AG, priority 2009, published 2011)

How the values were obtained:
wild type rice plants = test: Rice glasshouse trial, response to tembotrione; type: in vivo; settings: 100 g AI/ha, 7 DAT
Method: (§1) T0 rooted plantlets (either selected on phosphinothricin alone or on phosphinothricin supplemented with tembotrione) were transferred to soil in the glasshouse. Following an acclimation period, sufficiently grown plants were treated with the different HPPD inhibitor herbicides. As an example, T0 plants were sprayed with tembotrione of formulation type WP20 100 g Al/ha supplemented with ammonium sulfate and methyl ester raps oil. Seven days after the spray application, the symptoms due to the application of the herbicide were evaluated and compared the symptoms observed on wild type plants submitted to the same treatment.
(§2) The plants were classified in three categories based on the phenotype developed in response to the herbicide seven days after the treatment.

[1] = test system: T0 rice plants with FMP37e; test: Rice glasshouse trial, response to tembotrione; type: in vivo; settings: 100 g AI/ha, 7 DAT
Method: as §1, §2

[2] = test system: tobacco calli containing HPPD SEQ ID No. 7 (Blepharisma japonicum); test: Rooting of transformed tobacco calli on tembotrione media; type: cell-based, Nicotiana tabacum; settings: 6 to 12 weeks
Method: The leaf disks were co-cultivated for 2 days with Agrobacterium tumefaciens cells containing either the binary vector FMP37ebv or AtHPPDbv. Then the leaf disks were transferred to a media allowing the regeneration of shoots for 6 weeks on MS (Musharige and Skoog, (1962), Physiol Plant 15(3): 473-497) media supplemented with BAP (1 mg/mL; Benzylaminopurine), carbenicillin (250 mg/mL), cefotaxine (250 mg/mL), kanamycin (75 mg/mL) and tembotrione (10^−6 M)
Regenerated calli were transferred on media to induce the development of roots for 6 to 12 weeks: MS (½), supplemented with carbenicillin (250 mg/mL), cefotaxine (250 mg/mL), kanamycin (75 mg/mL), and tembotrione (10^−6 M).
Regenerated shoot calli from a cell transformed with a nucleic acid sequence encoding an HPPD comprising SEQ ID No. 11 (Arabidopsis thaliana) or SEQ ID No. 7 (Blepharisma japonicum) were transferred to a media inducing rot growth which media was further supplemented with the HPPD inhibitor tembotrione for 6 to 12 weeks.

[3] = test system: tobacco plants with FMP37t-h, PAT and 2mEPSPS (pFCO112); test: Glasshouse trial of tobacco with three tolerance genes; type: in vivo, Nicotiana tobacum; settings: 9 DAT
Method: A binary vector for tobacco transformation is, for example, constructed with the CaMV35 promoter driving the expression of the gene FMP37t-h (SEQ ID No. 15), with a codon usage optimized for the expression in dicotyledoneous plants and at its 5′ extremity was added a sequence coding for an OTP, and further upstream a sequence TEV (Tobacco etch virus) to improve the stability of the mRNA in plants followed by the CaMV35S terminator. The nucleotide sequence of the gene FMP37t-h is given in SEQ ID No. 15. Additionally, the transformation vector also contains a PAT gene cassette in which the gene is driven by a CaVM35S promoter and followed by a CaMV35S terminator for glufosinate based selection during the transformation process and a 2mEPSPS gene cassette in which the gene is driven by an histone promoter from Arabidopsis to confer tolerance to the herbicide glyphosate to the transformed plants (see FIG. 3 H). The binary vector was called pFCO112. The above vector was used to transform leaf disks obtained from Nicotiana tobacum plants, according to Example 3.
Transgenic tobacco plants were transferred to the greenhouse and treated with glyphosate at a rate of 1121 g Al/ha. Seeds were produced from such tolerant tobacco plants and harvested. These seeds were put on soil to germinate in the glasshouse. Three to four weeks later, 50 plantlets per event were transferred to single pots. Two weeks later, plants of a size 4-6 cm were sprayed either with:
[…] […] Non-transgenic tobacco plants were completely killed by treatment using one or more of the above herbicides.

Compound: CS(=O)(=O)c1ccc(C(=O)C2C(=O)CCCC2=O)c(Cl)c1COCC(F)(F)F [Tembotrione, 2-[2-chloro-4-(methylsulfonyl)-3-[(2,2,2,-tri-fluoroethoxy)methyl]benzoyl]-1,3-cyclo-hexanedione]
- number of plants in Class II (injury: 10-40%) (wild type rice plants): 0
- number of plants in Class I (no injuries) [1]: 1
- number of plants in Class II (injury: 10-40%) [1]: 6
- number of plants in Class III (injury: 41-100%) [1]: 16
- % Elongation & rooting on 10^−6M tembotrione [2]: 65%
- number of plants in Class I (no injuries) ([3]; line 634, 100 g AI/ha): 0
- number of plants in Class II (injury: 10-40%) ([3]; line 634, 100 g AI/ha): 3
- number of plants in Class III (injury: 41-100%) ([3]; line 634, 100 g AI/ha): 7
- number of plants in Class I (no injuries) ([3]; line 713, 100 g AI/ha): 0
- number of plants in Class II (injury: 10-40%) ([3]; line 713, 100 g AI/ha): 6
- number of plants in Class III (injury: 41-100%) ([3]; line 713, 100 g AI/ha): 4
